Consider six molecules from patent US6610273B2, “Process for making chemically stable C-17/21 OH 20-ketosteroid aerosol products” (3M Innovative Properties Company, priority 1999, dated 2003).

The conditions of series [1]: cited from earlier work; for Chemical stability of solution MDI formulation (in words): solution formulations, HFC propellant, prior publications.
Series [2] is classed as physicochemical. As to the method: (§1) At ambient temperature, a 3 mL ethanol solution of budesonide (0.007 M) was mixed with 0.1 g of aluminum oxide (Aldrich, neutral, activated Brockmann I, 150 mesh), which mimics aluminum oxide existing on the inner surface of aluminum containers. Each aliquot was filtered with a syringe filter and diluted with acetonitrile by 20 times for HPLC analysis to determine the recovery of budesonide with respect to the initial concentration. The recoveries of budesonide were compared with a reference, which contained the same concentration of budesonide but in ethanol solution without aluminum oxide.
as §1, with “triamcinolone acetonide” for “budesonide”
as §1, with “dexamethasone” for “budesonide”, “aliquote” for “aliquot”, “recoveries” for “recovery”, “inital” for “initial”

Series [3] can be described thus: Solubility testing of budesonide in P134a and P227 formulations at approximately 5° C. The class given is physicochemical.

With `CC(C)C(=O)OCC(=O)[C@@]12O[C@H](C3CCCCC3)O[C@@H]1C[C@H]1[C@@H]3CCC4=CC(=O)C=C[C@]4(C)[C@H]3[C@@H](O)C[C@@]12C` [ciclesonide], the “Chemical stability of solution MDI formulation (in words)” value in series [1] is reported as “surprisingly chemically stable”.

`CC1(C)O[C@@H]2C[C@H]3[C@@H]4CCC5=CC(=O)C=C[C@]5(C)[C@@]4(F)[C@@H](O)C[C@]3(C)[C@]2(C(=O)CO)O1` [triamcinolone acetonide]: in series [1] (aqueous formulations in neutral or basic solutions, WO96/40042), the “Degradation in aqueous formulations (in words)” value is given as “undergo oxidative degradation catalyzed by trace levels of metal ions”.

Take `C[C@@H]1C[C@H]2[C@@H]3CCC4=CC(=O)C=C[C@]4(C)[C@@]3(F)[C@@H](O)C[C@]2(C)[C@@]1(O)C(=O)CO` [dexamethasone]: the “Degradation in the presence of aluminum oxide (in words)” value in series [2] is listed as “completely degrades”.

For `CCCC1O[C@@H]2C[C@H]3[C@@H]4CCC5=CC(=O)C=C[C@]5(C)[C@H]4[C@@H](O)C[C@]3(C)[C@]2(C(=O)CO)O1` (stereo partly drawn) [budesonide], the “Budesonide Solubility, MEAN” value in series [3] (P134a, 5° C.) turned out to be 0.012 mg/g; in series [3] (P134a/5% EtOH, 5° C.), 0.465 mg/g; in series [3] (P134a/10% EtOH, 5° C.) it was 1.382 mg/g; in series [3] (P134a/15% EtOH, 5° C.) it was 2.699 mg/g; in series [3] (P134a/20% EtOH, 5° C.) it was 4.360 mg/g; in series [3] (P227, 5° C.), 0.016 mg/g. Besides, the “Budesonide Solubility, MEAN” value in series [3] (P227/5% EtOH, 5° C.) amounted to 0.657 mg/g; in series [3] (P227/10% EtOH, 5° C.), 1.703 mg/g; in series [3] (P227/15% EtOH, 5° C.), 2.98 mg/g; in series [3] (P227/20% EtOH, 5° C.), 4.435 mg/g. The “Budesonide Solubility, sample 1” value in series [3] (P134a, 5° C.) came out at 0.013 mg/g; in series [3] (P134a/5% EtOH, 5° C.), 0.459 mg/g; in series [3] (P134a/10% EtOH, 5° C.), 1.370 mg/g; in series [3] (P134a/15% EtOH, 5° C.) it was 2.686 mg/g; in series [3] (P134a/20% EtOH, 5° C.) it was 4.329 mg/g; in series [3] (P227, 5° C.), 0.017 mg/g. The “Budesonide Solubility, sample 1” value came out at 0.652 mg/g in series [3] (P227/5% EtOH, 5° C.); 1.698 mg/g in series [3] (P227/10% EtOH, 5° C.); 2.952 mg/g in series [3] (P227/15% EtOH, 5° C.); 4.387 mg/g in series [3] (P227/20% EtOH, 5° C.). Besides, the “Budesonide Solubility, sample 2” value in series [3] (P134a, 5° C.) was found to be 0.010 mg/g; in series [3] (P134a/5% EtOH, 5° C.), 0.471 mg/g; in series [3] (P134a/10% EtOH, 5° C.) it was 1.394 mg/g; in series [3] (P134a/15% EtOH, 5° C.), 2.711 mg/g; in series [3] (P134a/20% EtOH, 5° C.), 4.390 mg/g; in series [3] (P227, 5° C.), 0.015 mg/g. The “Budesonide Solubility, sample 2” value in series [3] (P227/5% EtOH, 5° C.) was 0.661 mg/g; in series [3] (P227/10% EtOH, 5° C.) it was 1.707 mg/g; in series [3] (P227/15% EtOH, 5° C.), 3.008 mg/g; in series [3] (P227/20% EtOH, 5° C.) it was 4.483 mg/g. For the same molecule, in series [2], the “Degradation in the presence of aluminum oxide (in words)” value is reported as “almost totally consumed”.

Take `CCC(=O)OCC(=O)[C@@]1(OC(=O)CC)[C@@H](C)C[C@H]2[C@@H]3CCC4=CC(=O)C=C[C@]4(C)[C@@]3(Cl)[C@@H](O)C[C@@]21C` [beclomethasone dipropionate]: the “Chemical stability of solution MDI formulation (in words)” value in series [1] is “surprisingly chemically stable”.

Take `CCC(=O)O[C@]1(C(=O)CO)[C@@H](C)C[C@H]2[C@@H]3CCC4=CC(=O)C=C[C@]4(C)[C@@]3(Cl)[C@@H](O)C[C@@]21C` [beclomethasone 17-monopropionate]: in series [2], the “Degradation rate in ethanol/Al2O3 relative to isomer 21-BMP (17-OH)” value is recorded as “about 100 times”.
